Values quoted from earlier work, collected in patent publication US10912471B2, “System and method for automatic perfusion measurement” (priority 2018, dated 2021).

Tests used:
plasma proteins = settings: becomes confined to the vascular system
[1] = administration not without risks, e.g. during pregnancy

Structure (SMILES): CC1(C)C(/C=C/C=C/C=C/C=C2\N(CCCCS(=O)(=O)O)c3ccc4ccccc4c3C2(C)C)=[N+](CCCCS(=O)(=O)[O-])c2ccc3ccccc3c21 [ICG, Indocyanine green]
- binding to plasma proteins (plasma proteins): binds tightly to plasma proteins
- toxicity classification [1]: low
